Consider nine compounds from patent US20230233569A1 (Revolution Medicines, Inc., priority 2020, published 2023).

The test system of test [1] is K-Ras G12C (NCI-H358 cells). Description: Potency assay: pERK (AlphaLISA SureFire or In-Cell Western). The test is classed as cell-based. Conditions: Homo sapiens, NCI-H358; H358 KRAS G12C; read-out: pERK EC50. The method in brief: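 Cellular pERK decrease measured after 4 h compound exposure (37 °C, 5% CO2) of NCI-H358 cells, 10-point 3-fold series from 10 mM DMSO stock, duplicates. Detection either by In-Cell Western (IR-800CW secondary, DRAQ5 stain) or AlphaLISA SureFire Ultra p-ERK1/2; 4-parameter sigmoidal fit gave IC50.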
In general terms: Alpha assays give light when donor and acceptor beads are brought close together.

In test [2] the target is KRAS G12S (Homo sapiens, UniProt P01116+P62937, G12S). Briefly: Disruption of BRAF RBD interaction with Ras (FRET / MOA assay, with Cyclophilin A). The test is classed as biochemical. The essentials:
(§1)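 First, compounds at a ten-point threefold dilution series (highest final concentration 30 μM) were incubated with nucleotide-loaded K-Ras, Cyclophilin A and BRAF RBD for 3 h at 25 °C. Next, detection antibodies were added for 1.5 h. Finally, IC50 was calculated from TR-FRET ratio decreases against DMSO controls.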

Test [3] deals with KRAS WT (Homo sapiens, UniProt P01116+P62937). The test is described as above. Format: biochemical. The method in brief:
as §1

Test [4] concerns the target KRAS G12D (Homo sapiens, UniProt P01116+P62937, G12D). The description is as above. Format: biochemical. The essentials: as §1
Test [5] deals with NRAS G12C (Homo sapiens, UniProt P01111+P62937, G12C). The description is as above. Format: biochemical.
The target of test [6] is KRAS G13D (Homo sapiens, UniProt P01116+P62937, G13D). The test is described as above. The test is classed as biochemical. The essentials:
as §1

In test [7] the target is KRAS G13C (Homo sapiens, UniProt P01116+P62937, G13C). The description is as above. Format: biochemical. The essentials: as §1
Test [8] concerns the target KRAS G12C (Homo sapiens, UniProt P01116+P62937, G12C). Described as above. The test is classed as biochemical. The method in brief: as §1
In test [9] the target is KRAS G12V (Homo sapiens, UniProt P01116+P62937, G12V). Described as above. Format: biochemical. The method in brief:
as §1

Where [10] appears, read: read-out: KRAS G12S FRET data, IC50.
[11] abbreviates: KRAS WT, read-out: KRAS WT FRET data IC50.
The mark [12] stands for this setting: read-out: KRAS G12D FRET data, IC50.
Where [13] appears, read: NRAS G12C, read-out: NRAS G12C FRET data IC50.
Where [14] appears, read: KRAS G13D, read-out: KRAS G13D FRET data IC50.
[15] abbreviates: KRAS G13C, read-out: KRAS G13C FRET data IC50.
Where [16] appears, read: KRAS G12C, read-out: KRAS G12C FRET data IC50.
Where [17] appears, read: KRAS G12V, read-out: KRAS G12V FRET data IC50.

Molecules are shown by their SMILES. Like-named read-outs stand apart in the source and are kept apart here. Bounds are passed on as bounds.

KRAS G12S, sequence (P01116 1-169 isoform P01116-2 G12S limits assumed): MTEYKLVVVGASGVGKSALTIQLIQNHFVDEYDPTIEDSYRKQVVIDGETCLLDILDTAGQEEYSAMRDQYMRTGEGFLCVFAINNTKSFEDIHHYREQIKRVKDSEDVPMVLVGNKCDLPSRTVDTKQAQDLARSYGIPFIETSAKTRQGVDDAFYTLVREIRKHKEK
KRAS G12S, sequence (P62937 whole entry): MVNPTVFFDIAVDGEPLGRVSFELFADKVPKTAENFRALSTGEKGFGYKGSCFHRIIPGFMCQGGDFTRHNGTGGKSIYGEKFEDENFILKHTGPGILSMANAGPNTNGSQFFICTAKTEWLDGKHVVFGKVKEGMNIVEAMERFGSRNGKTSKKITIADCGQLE
KRAS G12V, sequence (P01116 1-169 isoform P01116-2 G12V limits assumed): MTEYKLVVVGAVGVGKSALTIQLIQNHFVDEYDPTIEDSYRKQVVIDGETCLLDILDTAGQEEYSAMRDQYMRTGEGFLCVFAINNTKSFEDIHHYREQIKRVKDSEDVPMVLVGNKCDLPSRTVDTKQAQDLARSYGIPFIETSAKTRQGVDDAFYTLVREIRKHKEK
KRAS G12V, sequence (P62937 whole entry): as the sequence (P62937 whole entry) above
KRAS G12C, sequence (P01116 1-169 isoform P01116-2 G12C): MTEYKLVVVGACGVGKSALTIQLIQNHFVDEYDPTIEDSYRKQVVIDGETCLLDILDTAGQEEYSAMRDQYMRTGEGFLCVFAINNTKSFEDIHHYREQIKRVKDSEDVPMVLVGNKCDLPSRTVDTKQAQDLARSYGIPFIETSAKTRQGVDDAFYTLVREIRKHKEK
KRAS G12C, sequence (P62937 whole entry): as the sequence (P62937 whole entry) above
NRAS G12C, sequence (P01111 whole entry G12C): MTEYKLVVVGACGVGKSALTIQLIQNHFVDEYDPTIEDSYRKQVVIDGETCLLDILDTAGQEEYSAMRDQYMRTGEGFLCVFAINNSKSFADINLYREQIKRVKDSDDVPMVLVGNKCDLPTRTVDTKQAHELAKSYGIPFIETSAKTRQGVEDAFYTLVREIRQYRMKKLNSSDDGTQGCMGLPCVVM
NRAS G12C, sequence (P62937 whole entry): as the sequence (P62937 whole entry) above
KRAS G13C, sequence (P01116 1-169 isoform P01116-2 G13C): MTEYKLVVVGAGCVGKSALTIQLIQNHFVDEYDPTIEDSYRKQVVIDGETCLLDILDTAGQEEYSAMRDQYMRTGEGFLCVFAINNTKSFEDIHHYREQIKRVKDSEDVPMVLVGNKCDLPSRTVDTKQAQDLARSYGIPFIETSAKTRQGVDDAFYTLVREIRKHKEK
KRAS G13C, sequence (P62937 whole entry): as the sequence (P62937 whole entry) above
KRAS G12D, sequence (P01116 1-169 isoform P01116-2 G12D limits assumed): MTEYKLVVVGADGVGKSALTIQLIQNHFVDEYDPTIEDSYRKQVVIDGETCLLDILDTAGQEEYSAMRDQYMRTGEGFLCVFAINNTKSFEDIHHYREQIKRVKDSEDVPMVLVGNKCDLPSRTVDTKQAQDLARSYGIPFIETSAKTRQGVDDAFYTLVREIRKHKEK
KRAS G12D, sequence (P62937 whole entry): as the sequence (P62937 whole entry) above
KRAS G13D, sequence (P01116 1-169 isoform P01116-2 G13D limits assumed): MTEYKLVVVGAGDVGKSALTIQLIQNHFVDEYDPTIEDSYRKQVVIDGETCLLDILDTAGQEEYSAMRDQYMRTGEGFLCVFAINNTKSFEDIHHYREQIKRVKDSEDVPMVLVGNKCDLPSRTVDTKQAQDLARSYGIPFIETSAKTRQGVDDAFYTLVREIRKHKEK
KRAS G13D, sequence (P62937 whole entry): as the sequence (P62937 whole entry) above
KRAS WT, sequence (P01116 1-169 isoform P01116-2 limits assumed): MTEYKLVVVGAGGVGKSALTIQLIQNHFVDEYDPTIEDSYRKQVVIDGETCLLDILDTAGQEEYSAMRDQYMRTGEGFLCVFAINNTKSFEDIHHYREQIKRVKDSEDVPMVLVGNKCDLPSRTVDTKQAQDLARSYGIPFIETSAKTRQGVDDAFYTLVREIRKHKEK
KRAS WT, sequence (P62937 whole entry): as the sequence (P62937 whole entry) above

The EC50 is the concentration needed to bring the measured effect to its halfway point. By IC50 is commonly meant the concentration that inhibits the measured activity by half. In the case of `CCn1c(-c2cccnc2[C@H](C)OC)c2c3cc(ccc31)-c1cccc(c1)C[C@H](NC(=O)[C@@H](CN1CC[C@]3(CCN(C(=O)C#C[C@H]4COCCN4C)C3)C1=O)C(C)C)C(=O)N1CCCC(N1)C(=O)OCC(C)(C)C2` (stereo partly drawn) [Example A592], the EC50 in test [1] was < 5000 nM. In addition, the IC50 in test [2] (setting [10]) was 1000 to 10000 nM; in test [3] (setting [11]) it was > 10000 nM; in [4] (setting [12]), > 10000 nM; in test [5] (setting [13]) it was 10 to 100 nM; in [6] (setting [14]), > 10000 nM; in test [7] (setting [15]) it was 1000 to 10000 nM. The half-inhibitory concentration (IC50) in [8] (setting [16]) is 10 to 100 nM; in [9] (setting [17]) it was 1000 to 10000 nM.

For the compound `C=CC(=O)N1CCO[C@@]2(CCN(C(=O)N(C)[C@H](C(=O)N[C@H]3Cc4nc(cs4)-c4ccc5c(c4)c(c(-c4cccnc4[C@H](C)OC)n5CC(F)(F)F)CC(C)(C)COC(=O)C4CCCN(N4)C3=O)C(C)C)C2)C1` (stereo partly drawn) [Example A594], in [1], the concentration giving a half-maximal response (EC50) was < 5000 nM. Also, the IC50 in test [2] (KRAS G12S FRET data, IC50) fell in the range of 100 to 1000 nM; in [3] (KRAS WT FRET data IC50, KRAS WT), 10 to 100 nM; in [4] (KRAS G12D FRET data, IC50), 100 to 1000 nM; in test [5] (NRAS G12C FRET data IC50, NRAS G12C) it was 10 to 100 nM; in test [6] (KRAS G13D FRET data IC50, KRAS G13D) it was 100 to 1000 nM; in test [7] (KRAS G13C FRET data IC50, KRAS G13C) it was 10 to 100 nM. Also, the half-maximal inhibitory concentration (IC50) in test [8] (KRAS G12C FRET data IC50, KRAS G12C) was 10 to 100 nM; in test [9] (KRAS G12V FRET data IC50, KRAS G12V), 100 to 1000 nM.

Regarding `C=CC(=O)N1CCO[C@H]2CN(C(=O)N(C)[C@H](C(=O)N[C@H]3Cc4cccc(n4)-c4ccc5c(c4)c(c(-c4cccnc4[C@H](C)OC)n5CC(F)(F)F)CC(C)(C)COC(=O)C4CCCN(N4)C3=O)C(C)C)C[C@H]21` (stereo partly drawn) [Example A595], the 50% effective concentration (EC50) in [1] was < 5000 nM. In addition, the concentration for half-maximal inhibition (IC50) is 1000 to 10000 nM in [2] (setting [10]); 100 to 1000 nM in test [3] (setting [11]); 1000 to 10000 nM in test [4] (setting [12]); 10 to 100 nM in test [5] (setting [13]); 1000 to 10000 nM in test [6] (setting [14]); 10 to 100 nM in test [7] (setting [15]). Moreover, the half-maximal inhibitory concentration (IC50) in test [8] (setting [16]) was in the range of 10 to 100 nM; in test [9] (setting [17]) it was 1000 to 10000 nM.

For `C=CC(=O)N1CCC2(C1)CN(C(=O)N(C)[C@H](C(=O)N[C@H]1Cc3nc(cs3)-c3ccc4c(c3)c(c(-c3cccnc3[C@H](C)OC)n4CC(F)(F)F)CC(C)(C)COC(=O)C3CCCN(N3)C1=O)C(C)C)C2` (stereo partly drawn) [Example A603], in test [1], the 50% effective concentration (EC50) is < 5000 nM. For the same compound, the IC50 in [2] (setting [10]) lay in the range of 100 to 1000 nM; in test [3] (setting [11]), 10 to 100 nM; in [4] (setting [12]), 100 to 1000 nM; in test [5] (setting [13]), 10 to 100 nM; in test [6] (setting [14]) it was 100 to 1000 nM; in test [7] (setting [15]), 10 to 100 nM. Also, the IC50 in test [8] (setting [16]) fell in the range of 10 to 100 nM; in test [9] (setting [17]), 100 to 1000 nM.

Regarding `C=CC(=O)N1CCOC2(CCN(C(=O)N(C)[C@H](C(=O)N[C@H]3Cc4cc(CF)cc(c4)-c4ccc5c(c4)c(c(-c4cccnc4[C@H](C)OC)n5CC(F)(F)F)CC(C)(C)COC(=O)C4CCCN(N4)C3=O)C(C)C)CC2)C1` (stereo partly drawn) [Example A605], the half-maximal effective concentration (EC50) in test [1] was < 5000 nM. For the same compound, the IC50 fell in the range of 100 to 1000 nM in test [2] (setting [10]); 10 to 100 nM in test [3] (setting [11]); 100 to 1000 nM in test [4] (setting [12]); 100 to 1000 nM in test [5] (setting [13]); 100 to 1000 nM in [6] (setting [14]); 10 to 100 nM in [7] (setting [15]). Also, the IC50 in [8] (setting [16]) and in test [9] (setting [17]) was 100 to 1000 nM throughout.

In the case of `C=CC(=O)N1CCOC2(CCN(C(=O)N(C)[C@H](C(=O)N[C@H]3Cc4nc(n(C)n4)-c4ccc5c(c4)c(c(-c4cccnc4[C@H](C)OC)n5CC(F)(F)F)CC(C)(C)COC(=O)C4CCCN(N4)C3=O)C(C)C)CC2)C1` (stereo partly drawn) [Example A606], the EC50 in [1] is < 5000 nM. Moreover, the concentration for half-maximal inhibition (IC50) in test [2] (setting [10]) is 100 to 1000 nM; in test [3] (setting [11]) it was 100 to 1000 nM; in test [4] (setting [12]), 1000 to 10000 nM; in [5] (setting [13]) it was 100 to 1000 nM; in test [6] (setting [14]), 100 to 1000 nM; in [7] (setting [15]), 10 to 100 nM. For the same compound, the IC50 in test [8] (setting [16]) and in test [9] (setting [17]) was 100 to 1000 nM each time.

As to `C=CC(=O)N1CCOC2(CCN(C(=O)N(C)[C@H](C(=O)N[C@H]3Cc4cccc(c4)-c4ccc5c(c4)c(c(-c4cccnc4[C@H](C)OC)n5CC(F)(F)F)CC(C)(C)COC(=O)C4CCCN(N4)C3=O)C(C)C)CC2)C1` (stereo partly drawn) [Example A608], the concentration giving a half-maximal response (EC50) in test [1] is < 5000 nM. The IC50 in [2] (setting [10]) was in the range of 100 to 1000 nM; in test [3] (setting [11]) it was 100 to 1000 nM; in test [4] (setting [12]), 100 to 1000 nM; in test [5] (setting [13]), 100 to 1000 nM; in test [6] (setting [14]), 100 to 1000 nM; in test [7] (setting [15]) it was 10 to 100 nM. Moreover, the concentration for half-maximal inhibition (IC50) in test [8] (setting [16]) and in test [9] (setting [17]) was 100 to 1000 nM in each case.

For the compound `C=CC(=O)N1CCO[C@H]2CCN(C(=O)N(C)[C@H](C(=O)N[C@H]3Cc4nc(cs4)-c4ccc5c(c4)c(c(-c4cccnc4[C@H](C)OC)n5CC)CC(C)(C)COC(=O)C4CCCN(N4)C3=O)C(C)C)C[C@@H]21` (stereo partly drawn) [Example A609], the EC50 in [1] was < 5000 nM. Moreover, the IC50 in [2] (setting [10]) is 10 to 100 nM; in test [3] (setting [11]) it was 10 to 100 nM; in test [4] (setting [12]), 100 to 1000 nM; in test [5] (setting [13]), < 10 nM; in test [6] (setting [14]), 100 to 1000 nM; in test [7] (setting [15]) it was 10 to 100 nM. Also, the IC50 in test [8] (setting [16]) is < 10 nM; in test [9] (setting [17]), 10 to 100 nM.

Regarding `C=CC(=O)N1CCO[C@H]2CN(C(=O)N(C)[C@H](C(=O)N[C@H]3Cc4cccc(c4)-c4ccc5c(c4)c(c(-c4cccnc4[C@H](C)OC)n5CC)CC(C)(C)COC(=O)C4CCCN(N4)C3=O)C(C)C)C[C@H]21` (stereo partly drawn) [Example A610], the EC50 in test [1] is < 5000 nM. The IC50 fell in the range of 1000 to 10000 nM in [2] (setting [10]); 100 to 1000 nM in test [3] (setting [11]); 1000 to 10000 nM in [4] (setting [12]); 10 to 100 nM in test [5] (setting [13]); 1000 to 10000 nM in [6] (setting [14]); 10 to 100 nM in [7] (setting [15]). For the same compound, the IC50 was in the range of 10 to 100 nM in [8] (setting [16]) and 1000 to 10000 nM in test [9] (setting [17]).
